pIC50: −log10 of the molar value. Where two headings read alike, the source gives them in different places. One block for each molecule: values may come before it.
Assays:
[1] = system: SW48 colorectal cancer cells; experiment: 2D antiproliferation on MSI-H SW48 cells, CTG, 5 days; format: cell-based; settings: for pIC50 / inhibition at 38.15 pM / inhibition at 0.000152588 µM / inhibition at 0.000610352 µM / inhibition at 0.00976562 µM / inhibition at 0.0390625 µM / inhibition at 0.15625 µM / inhibition at 0.625 µM / inhibition at […] / inhibition at 10 µM: Homo sapiens; for pIC50: 120 h, SW48 MSI-H, 5 days; for inhibition at 38.15 pM: SW48, 0.038146973 nM; for inhibition at 0.000152588 µM: SW48, 0.152587891 nM; for inhibition at 0.000610352 µM: SW48, 0.610351563 nM; for inhibition at 0.00976562 µM: SW48, 9.765625 nM; for inhibition at 0.0390625 µM: SW48, 39.0625 nM; for inhibition at 0.15625 µM: SW48, 156.25 nM; for inhibition at 0.625 µM: SW48, 625 nM; for inhibition at […]: SW48, 2500 nM; for inhibition at 10 µM: SW48, 10000 nM
Description: The molecules of the present disclosure were tested for their anti-proliferative activity on MSI-H tumor cells.
SW48 colorectal cancer cells with MSI were cultured in a RMI1640 medium containing 10% FBS and 1% penicillin-streptomycin, and the mixture was cultured in a 37° C., 5% CO2 incubator. 40 μL of cell suspension was added to each well of a 384-well microplate. […] of compounds with different concentrations were added to each well using Echo, and the mixtures were cultured in a 37° C., 5% CO2 incubator for 5 days. 40 μL of CTG solution (Promega, Cat No. G7573) was added to each well and incubated in a 37° C., 5% CO2 incubator in the dark for 30 minutes. The luminescence value was read using an Envision multi-function microplate reader (Perkin Elmer, catalog number Envision 2104). The optical signal is proportional to the amount of ATP in the system, while the ATP content directly characterizes the number of viable cells in the system.

[2] = system: HT-29 colorectal cancer cells; experiment: 2D antiproliferation on MSS HT-29 cells, CTG, 5 days; format: cell-based; settings: Homo sapiens, 120 h, HT-29 MSS
Description: The molecules of the invention were tested for their anti-proliferative activities on MSS tumor cells.
HT-29 colorectal cancer cells with MSS were cultured in a McCoy's 5A medium containing 10% FBS and 1% penicillin-streptomycin in a 37° C., 5% CO2 constant temperature incubator. 40 μL of cell suspension was added to each well of a 384-well microplate. […] of compounds with different concentrations were added to each well using Echo. The mixtures were cultured in a 37° C., 5% CO2 constant temperature incubator for 5 days. 40 μL of CTG solution (Promega, Cat No. G7573) was added to each well, and the mixture was incubated in a 37° C., 5% CO2 constant temperature incubator for 30 minutes in the dark. The luminescence value was read using an Envision multi-function microplate reader (Perkin Elmer, catalog number Envision 2104). The optical signal is proportional to the amount of ATP in the system, while the ATP content directly characterizes the number of viable cells in the system.

[3] = system: SW48 (MSI-H) colorectal cancer tumor cells; experiment: In vivo efficacy, SW48 xenograft in nude mice; set-up: species or system BALB/c nude mice; settings: QD, oral; for TGI: 21 days; for Tumor Volume D 1: day 1; for Tumor volume D 21: day 21
Description: In vivo efficacy experiment in BALB/C nude mice. Details are as follows:
SW48 (MSI-H) colorectal cancer tumor cells were cultured (in an L15 medium with 10% fetal bovine serum), and inoculated into 6-8 week old female BALB/c nude mice (with body weight of about 20 g). All the mice were inoculated subcutaneously. The mice were raised in an SPF-grade experimental environment, and all the mice were free to take commercially certified standard diets. When the tumors grew to an average volume of about 160 mm^3 in mice, the test compound was orally administered daily. […] The tumor volume was measured with a two-dimensional caliper three times a week, and the animals were weighed every day. […] The volume calculation formula is: V=1/2a*b^2, where a represents the long diameter of the tumor and b represents the short diameter of the tumor.

WRN enzyme = biological target: T1, WRN enzyme (Homo sapiens, UniProt Q14191); experiment: WRN helicase hydrolysis (unwinding) of double-stranded DNA, fluorescence assay; format: biochemical; settings: 30 min pre-incubation, 60 min reaction
T1 construct: 10 μL (2×) of WRN enzyme solution was added
Description: • The molecules of the present disclosure were tested for their activities on the WRN helicase hydrolysis of double-stranded DNA (Table 1).
A working solution to be tested and a buffer were prepared. The compound to be tested was dissolved in DMSO and subjected to 4× dilution (with 10 μM final concentration as the starting concentration). 0.2 μL of the solution of the compound to be tested was added to the 384-well plate and 10 μL (2×) of WRN enzyme solution was added. The solution was incubated in the dark for 30 minutes. Then, 10 μL of a substrate detection solution containing double-stranded DNA was added to initiate the reaction (the DNA has a length of 19 bp, and labeled with TAMRA and BHQ2 at 3′ and 5′-ends, respectively). The solution was incubated at room temperature for 60 minutes. The inhibitory activities (IC50) against WRN enzyme were calculated based on the change of Ex530/Em590 in the blank group (DMSO) and the compound group.

[4] = female, CD1, mouse, in vivo
Description: (§1) Mouse Pharmacokinetic Evaluation Experiment
(§2) CD1 female mice were used as test animals to be administered orally/intravenously (with oral dosage of 10 mg/kg or intravenous dosage of 2 mg/kg).
(§3) Experimental scheme: The oral administration group comprised 3 mice per group (Solvent: 10% Hβ-CD-pH7.4), and the intravenous group comprised 3 mice per group. […] The blood concentration in the plasma of mice was determined using the LC/MS/MS method after the oral or intravenous administration, respectively, and the collected data were calculated using the AB Sciex QTRAP 6500 software.

in vivo = settings: female, CD1, mouse
Description: as §1, §2, §3

[5] = read-out: Average Value/Inhibition Rate
[6] = read-out: Test 1/Inhibition Rate
[7] = read-out: Test 2/Inhibition Rate

T1 sequence (Q14191 whole entry): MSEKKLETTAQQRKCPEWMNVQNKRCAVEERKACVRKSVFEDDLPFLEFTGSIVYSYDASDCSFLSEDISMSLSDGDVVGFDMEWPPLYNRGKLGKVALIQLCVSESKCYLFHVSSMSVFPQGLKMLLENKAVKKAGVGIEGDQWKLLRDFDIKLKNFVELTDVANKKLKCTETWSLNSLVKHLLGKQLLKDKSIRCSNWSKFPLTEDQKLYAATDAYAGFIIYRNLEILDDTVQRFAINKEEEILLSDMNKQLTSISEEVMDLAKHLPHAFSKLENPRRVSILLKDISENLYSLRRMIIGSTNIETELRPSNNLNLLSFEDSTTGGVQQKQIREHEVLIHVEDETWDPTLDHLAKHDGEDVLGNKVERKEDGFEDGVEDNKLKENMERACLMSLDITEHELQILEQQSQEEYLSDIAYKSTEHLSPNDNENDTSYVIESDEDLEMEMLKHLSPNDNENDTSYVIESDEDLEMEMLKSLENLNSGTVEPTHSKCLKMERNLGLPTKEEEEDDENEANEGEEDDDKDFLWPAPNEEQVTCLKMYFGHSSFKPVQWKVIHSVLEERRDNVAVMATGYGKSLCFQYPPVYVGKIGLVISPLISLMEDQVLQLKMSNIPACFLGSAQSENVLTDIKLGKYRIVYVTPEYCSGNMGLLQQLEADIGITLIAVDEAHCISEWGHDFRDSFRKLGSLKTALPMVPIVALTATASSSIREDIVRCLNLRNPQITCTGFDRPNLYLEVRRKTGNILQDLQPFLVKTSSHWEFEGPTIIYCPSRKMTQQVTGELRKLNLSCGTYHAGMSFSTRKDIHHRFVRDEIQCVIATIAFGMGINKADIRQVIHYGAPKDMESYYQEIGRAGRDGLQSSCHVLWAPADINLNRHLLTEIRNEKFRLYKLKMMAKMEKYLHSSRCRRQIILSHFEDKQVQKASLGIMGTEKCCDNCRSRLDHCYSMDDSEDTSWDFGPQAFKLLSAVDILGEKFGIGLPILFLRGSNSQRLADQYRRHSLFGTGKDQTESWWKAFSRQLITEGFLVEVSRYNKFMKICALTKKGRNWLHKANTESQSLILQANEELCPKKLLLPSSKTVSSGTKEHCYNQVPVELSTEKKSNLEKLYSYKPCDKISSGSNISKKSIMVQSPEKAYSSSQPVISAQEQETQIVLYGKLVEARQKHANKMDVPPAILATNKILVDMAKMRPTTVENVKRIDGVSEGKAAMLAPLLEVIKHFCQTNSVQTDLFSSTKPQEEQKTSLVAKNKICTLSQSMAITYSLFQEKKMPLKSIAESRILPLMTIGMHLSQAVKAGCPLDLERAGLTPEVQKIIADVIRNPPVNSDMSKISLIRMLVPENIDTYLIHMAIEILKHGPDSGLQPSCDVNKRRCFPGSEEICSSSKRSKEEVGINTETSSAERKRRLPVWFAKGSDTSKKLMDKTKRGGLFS

pIC50 [1]: 7.41
pIC50 [2]: < 5.00
pIC50 (WRN enzyme): 8.85
Structure (SMILES): CCc1c(N2CCN(C(=O)c3ncnc(C)c3O)CC2)c(=O)n2nc(-c3cc4c(s3)COC4)nc2n1CC(=O)Nc1ccc(C(F)(F)F)cc1Cl [P7]
inhibitory activity on SW48 cells ([1]; 39 nM): high inhibitory activity
inhibition at 38.15 pM [1, 5]: 6.64%
inhibition at 38.15 pM [1, 6]: 2.01%
inhibition at 38.15 pM [1, 7]: 11.3%
inhibition at 0.000152588 µM [1, 5]: 3.66%
inhibition at 0.000152588 µM [1, 6]: -6.35%
inhibition at 0.000152588 µM [1, 7]: 13.7%
inhibition at 0.000610352 µM [1, 5]: 4.19%
inhibition at 0.000610352 µM [1, 6]: -2.7%
inhibition at 0.000610352 µM [1, 7]: 11.1%
inhibition at 0.00976562 µM [1, 5]: 2.23%
inhibition at 0.00976562 µM [1, 6]: -0.534%
inhibition at 0.00976562 µM [1, 7]: 4.98%
inhibition at 0.0390625 µM [1, 5]: 54.8%
inhibition at 0.0390625 µM [1, 6]: 56%
inhibition at 0.0390625 µM [1, 7]: 53.6%
inhibition at 0.15625 µM [1, 5]: 99%
inhibition at 0.15625 µM [1, 6]: 98.8%
inhibition at 0.15625 µM [1, 7]: 99.2%
inhibition at 0.625 µM [1, 5]: 100%
inhibition at 0.625 µM [1, 6]: 100%
inhibition at 0.625 µM [1, 7]: 100%
inhibition at […] [1, 5]: 101%
inhibition at […] [1, 6]: 101%
inhibition at 10 µM [1, 5]: 101%
inhibition at 10 µM [1, 6]: 101%
inhibition at 10 µM [1, 7]: 101%
TGI ([3]; 20 mg/kg): 82%
Tumor Volume D 1 ([3]; 20 mg/kg): 158 mm^3
Tumor volume D 21 ([3]; 20 mg/kg): 491 mm^3
TGI ([3]; 50 mg/kg): 105%
Tumor Volume D 1 ([3]; 50 mg/kg): 158 mm^3
Tumor volume D 21 ([3]; 50 mg/kg): 71 mm^3
TGI ([3]; 120 mg/kg): 105%
Tumor Volume D 1 ([3]; 120 mg/kg): 174 mm^3
Tumor volume D 21 ([3]; 120 mg/kg): 24 mm^3

pIC50 [1]: 7.27
pIC50 [2]: < 5.00
F [4]: 25%
AUC(0-t) (in vivo; iv, 2 mg/kg): 1230 ng·h/mL
C0 (in vivo; iv, 2 mg/kg): 2840 ng/mL
clearance (in vivo; iv, 2 mg/kg): 27 mL/min/kg
half-life (in vivo; iv, 2 mg/kg): 0.9 h
AUC(0-t) (in vivo; po, 10 mg/kg): 1520 ng·h/mL
Cmax (in vivo; po, 10 mg/kg): 695 ng/mL
Tmax (in vivo; po, 10 mg/kg): 1 h
half-life (in vivo; po, 10 mg/kg): 1.4 h
pIC50 (WRN enzyme): 8.92
Structure (SMILES): CCc1c(N2CCN(C(=O)c3ncccc3O)CC2)c(=O)n2nc(-c3ccc(CO)s3)nc2n1CC(=O)Nc1ccc(C(F)(F)F)cc1Cl [P9]
